Measured values published in patent EP4818178A1, “PREPARATION AND USE OF PYRIMIDOTHIOPYRANONE KRAS MUTANT PROTEIN INHIBITOR” (Ya Therapeutics Inc, priority 2024, dated 2025).

What was measured:
KRasG12D = KRasG12D (Homo sapiens, UniProt P01116, G12D); experiment: KRAS inhibitory activity test, TR-FRET (inhibition of binding of KRasG12D to GTP, SOS/GTP nucleotide exchange); type: biochemical; conditions: read-out: IC50 values of the compounds for inhibiting KRAS enzymes, G12D
Summary of the method: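 KRasG12D preloaded with Bodipy-GDP plus Tb-streptavidin (3 nM Kras/0.5 nM Tb-SA/30 nM Bodipy-GDP) incubated 1 h at rt with compound (10-point 3-fold series). SOS/GTP mixture then added for 1 h at rt. TR-FRET signal read; IC50 calculated.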

[1] = test system: p-ERK in AsPC-1 (G12D) cells; experiment: Cellular p-ERK inhibition assay (HTRF); type: cell-based; conditions: Homo sapiens, ASPC1, 1 hour with compound, read-out: IC50 (nM) of the compounds on the inhibition of p-ERK in tumor cells, AsPC-1
Procedure: (§1) Cells were seeded in clear 96-well cell culture plates, with 80 µL of cell suspension per well, containing 8000 cells per well. The plates were incubated overnight at 37°C using a CO2 incubator. 2 µL of the compound was added to 78 µL of cell culture medium, mixed well, and then 20 µL of the compound solution was added to the corresponding wells of the cell culture plate. The plates were returned to the CO2 incubator for another hour. After incubation, the cell supernatant was discarded, and 50 µL of the […] was added to the cell culture plate. Add 1X cell lysis buffer to each well and incubate at room temperature with shaking for 30 minutes. Dilute Phospho-ERK1/2 Eu Cryptate antibody and Phospho-ERK1/2 d2 antibody 20-fold using detection buffer. Transfer 16 µL of cell lysis supernatant to each well in a new 384 white microplate, then add 2 µL of Phospho-ERK1/2 Eu Cryptate antibody diluent and 2 µL of Phospho-ERK1/2 d2 antibody diluent. Incubate at room temperature for at least 4 hours. After incubation, read the HTRF excitation (320 nm) and emission (615 nm, 665 nm) using a multilabel analyzer. Calculate the IC50 of the analyte. "++++" indicates IC50≤ 10 nM; "+++" indicates 10 nM < IC50≤ 100 nM; "++" indicates 100 nM < IC50≤ 2000 nM; "+" indicates 2000 nM < IC50. Table 2. IC50 (nM) of the compounds on the inhibition of p-ERK in tumor cells.

[2] = test system: p-ERK in HCT116 (G13D) cells; experiment: Cellular p-ERK inhibition assay (HTRF); type: cell-based; conditions: Homo sapiens, HCT-116, 1 hour with compound, read-out: IC50 (nM) of the compounds on the inhibition of p-ERK in tumor cells, HCT11 6
Procedure: as §1

[3] = test system: p-ERK in PSN-1 (G12R) cells; experiment: Cellular p-ERK inhibition assay (HTRF); type: cell-based; conditions: Homo sapiens, PSN1, 1 hour with compound, read-out: IC50 (nM) of the compounds on the inhibition of p-ERK in tumor cells, PSN-1
Procedure: as §1

[4] = test system: p-ERK in A549 (G12S) cells; experiment: Cellular p-ERK inhibition assay (HTRF); type: cell-based; conditions: 1 hour with compound
Procedure: as §1

[5] = test system: p-ERK in MKN1 (WTdep) cells; experiment: Cellular p-ERK inhibition assay (HTRF); type: cell-based; conditions: Homo sapiens, MKN-1, 1 hour with compound, read-out: IC50 (nM) of the compounds on the inhibition of p-ERK in tumor cells, MKN 1
Procedure: as §1

[6] = test system: p-ERK in NCI-H358 (G12C) cells; experiment: Cellular p-ERK inhibition assay (HTRF); type: cell-based; conditions: Homo sapiens, 1 hour with compound, read-out: IC50 (nM) of the compounds on the inhibition of p-ERK in tumor cells, NCI-H35 8
Procedure: as §1

[7] = test system: p-ERK in NCI-H460 (Q61H) cells; experiment: Cellular p-ERK inhibition assay (HTRF); type: cell-based; conditions: Homo sapiens, 1 hour with compound, read-out: IC50 (nM) of the compounds on the inhibition of p-ERK in tumor cells, NCI-H46 0
Procedure: as §1

[8] = test system: p-ERK in NCI-H727 (G12V) cells; experiment: Cellular p-ERK inhibition assay (HTRF); type: cell-based; conditions: Homo sapiens, 1 hour with compound, read-out: IC50 (nM) of the compounds on the inhibition of p-ERK in tumor cells, NCI-H72 7
Procedure: as §1

Sequence of KRasG12D (P01116 1-188 isoform P01116-2 G12D): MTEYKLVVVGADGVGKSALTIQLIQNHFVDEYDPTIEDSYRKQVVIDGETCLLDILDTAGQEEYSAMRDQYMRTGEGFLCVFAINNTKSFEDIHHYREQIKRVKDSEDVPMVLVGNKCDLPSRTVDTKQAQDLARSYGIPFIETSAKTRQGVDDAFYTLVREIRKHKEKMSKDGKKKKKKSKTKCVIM

SMILES	IC50 (KRasG12D)	IC50 [1]	IC50 [2]	IC50 [3]	IC50 (nM) of the compounds on the inhibition of p-ERK in tumor cells, A54 9 [4]	IC50 [5]	IC50 [6]	IC50 [7]	IC50 [8]
Cc1cc(N)nc(C2Cc3nc(OC[C@@]45CCCN4C[C@H](F)C5)nc(N4CCC[C@@](C)(O)C4)c3CS2(=O)=O)c1C(F)(F)F (stereo partly drawn) [Compound 7, 7-(6-amino-4-methyl-3-(trifluoromethyl)pyridin-2-yl)-2-(((2R,7AS)-2-fluorotetrahydro-1H-pyrrolazin-7a(5H)-yl)methoxy)-4-((R)-3-hydroxy-3-methylpiperidin-1-yl)-7,8-d ihydro-5H-thiopyrano[4,3-d]pyrimidine 6,6-dioxide]	≤ 10 nM	≤ 10 nM	≤ 10 nM	100 to 2000 nM	–	–	–	–	–
Cc1cc(N)c(F)c(C2Cc3nc(OC[C@@]45CCCN4C[C@H](F)C5)nc(N4CCC[C@@](C)(O)C4)c3CS2(=O)=O)c1C(F)(F)F (stereo partly drawn) [Compound 5, 7-(3-amino-2-fluoro-5-methyl-6-(trifluoromethyl)phenyl)-2-(((2R,7AS)-2-fluorotetra hydro-1H-pyrrolazin-7a(5H)-yl)methoxy)-4-((R)-3-hydroxy-3-methylpiperidin-1-yl)-7,8-dihydro-5H-thiopyrano[4,3-d]pyrimidine 6,6-dioxide]	≤ 10 nM	≤ 10 nM	≤ 10 nM	100 to 2000 nM	+++ +	≤ 10 nM	≤ 10 nM	≤ 10 nM	≤ 10 nM
Cc1cc(O)c(F)c(C2Cc3nc(OC[C@@]45CCCN4C[C@H](F)C5)nc(N4C[C@H]5CC[C@@H](C4)N5)c3CS2(=O)=O)c1C(F)(F)F (stereo partly drawn) [Compound 2, 4-((1R,5S)-3,8-diazabicyclo[3.2.1]octane-3-yl)-7-(2-fluoro-3-hydroxy-5-methyl-6-(trifluoromethyl)phenyl)-2-(((2R,7AS)-2-fluorotetrahydro-1H-pyrrolazin-7a(5H)-yl)methoxy)-7,8-dihydro-5H-thiopyrano[4,3-d]pyrimidine-6,6-dioxide]	≤ 10 nM	≤ 10 nM	≤ 10 nM	100 to 2000 nM	–	–	–	–	–
Cc1cc(N)nc(C2Cc3nc(OC[C@@]45CCCN4C[C@H](F)C5)nc(N4C[C@H]5CC[C@@H](C4)N5)c3CS2(=O)=O)c1C(F)(F)F (stereo partly drawn) [Compound 3, 7-(6-amino-4-methyl-3-(trifluoromethyl)pyridin-2-yl)-4-((1R,5S)-3,8-diazabicyclo[3. 2.1]octane-3-yl)-2-(((2R,7AS)-2-fluorotetrahydro-1H-pyrrolazin-7a(5H)-yl)methoxy) -7,8-dihydro-5H-thiopyrano[4,3-d]pyrimidine-6,6-dioxide]	≤ 10 nM	≤ 10 nM	≤ 10 nM	100 to 2000 nM	–	–	–	–	–
Cc1cc(N)c(F)c(C2Cc3nc(OC[C@@]45CCCN4C[C@H](F)C5)nc(N4C[C@H]5CC[C@@H](C4)N5)c3CS2(=O)=O)c1C(F)(F)F (stereo partly shown) [Compound 1]	≤ 10 nM	≤ 10 nM	≤ 10 nM	100 to 2000 nM	+++ +	≤ 10 nM	≤ 10 nM	≤ 10 nM	≤ 10 nM
Cc1cc(O)nc(C2Cc3nc(OC[C@@]45CCCN4C[C@H](F)C5)nc(N4CCC[C@@](C)(O)C4)c3CS2(=O)=O)c1C(F)(F)F (stereo partly drawn) [Compound 8, 2-(((2R,7AS)-2-fluorotetrahydro-1H-pyrrolazin-7a(5H)-yl)methoxy)-4-((R)-3-hydroxy-3-methylpiperidin-1-yl)-7-(6-hydroxy-4-methyl-3-(trifluoromethyl)pyridin-2-yl)-7,8-dihydro-5H-thiopyrano[4,3-d]pyrimidine-6,6-dioxide]	≤ 10 nM	≤ 10 nM	≤ 10 nM	100 to 2000 nM	–	–	–	–	–
Cc1cc(O)c(F)c(C2Cc3nc(OC[C@@]45CCCN4C[C@H](F)C5)nc(N4CCC[C@@](C)(O)C4)c3CS2(=O)=O)c1C(F)(F)F (stereo partly drawn) [Compound 6, 7-(2-fluoro-3-hydroxy-5-methyl-6-(trifluoromethyl)phenyl)-2-(((2R,7AS)-2-fluorotetrahydro-1H-pyrrolazin-7a(5H)-yl)methoxy)-4-((R)-3-hydroxy-3-methylpiperidin-1-yl)-7,8-dihydro-5H-thiopyrano[4,3-d]pyrimidine 6,6-dioxide]	≤ 10 nM	≤ 10 nM	≤ 10 nM	100 to 2000 nM	+++ +	≤ 10 nM	≤ 10 nM	≤ 10 nM	≤ 10 nM
Cc1cc(N)c(F)c([C@@H]2Cc3nc(OC[C@@]45CCCN4C[C@H](F)C5)nc(N4C[C@H]5CC[C@@H](C4)N5)c3CS2(=O)=O)c1C(F)(F)F [Compound 35A, (7S)-7-(3-amino-2-fluoro-5-methyl-6-(trifluoromethyl)phenyl)-4-((1R,5S)-3,8-diazabicyclo[3.2.1]octane-3-yl)-2-(((2R,7AS)-2-fluorotetrahydro-1H-pyrrolazin-7a(5H)-yl)methoxy)-7,8-dihydro-5H-thiopyrano[4,3-d]pyrimidine 6,6-Dioxide]	≤ 10 nM	–	–	–	–	–	–	–	–
CC#Cc1cc(N)cc([C@@H]2Cc3nc(OC[C@@]45CCCN4CC(=C(F)F)C5)nc(N4CC5CCC(C4)N5)c3CS2(=O)=O)c1C(F)(F)F [Compound 31A]	≤ 10 nM	–	–	–	–	–	–	–	–
Cc1cc(O)nc(C2Cc3nc(OC[C@@]45CCCN4C[C@H](F)C5)nc(N4C[C@H]5CC[C@@H](C4)N5)c3CS2(=O)=O)c1C(F)(F)F (stereo partly drawn) [Compound 4, 4-((1R,5S)-3,8-diazabicyclo[3.2.1]octane-3-yl)-2-(((2R,7AS)-2-fluorotetrahydro-1H-pyrrolazin-7a(5H)-yl)methoxy)-7-(6-hydroxy-4-methyl-3-(trifluoromethyl)pyridin-2-yl)-7,8-dihydro-5H-thiopyrano[4,3-d]pyrimidine-6,6-dioxide]	≤ 10 nM	≤ 10 nM	≤ 10 nM	100 to 2000 nM	–	–	–	–	–
